What was measured:
[1] = target: T1, Alpha-1B adrenergic receptor (Homo sapiens, UniProt P35368); assay: Agonist potency at Alpha-1B adrenergic receptor expressed in rat-1 fibroblasts; type: functional
T1 sequence (P35368 whole entry): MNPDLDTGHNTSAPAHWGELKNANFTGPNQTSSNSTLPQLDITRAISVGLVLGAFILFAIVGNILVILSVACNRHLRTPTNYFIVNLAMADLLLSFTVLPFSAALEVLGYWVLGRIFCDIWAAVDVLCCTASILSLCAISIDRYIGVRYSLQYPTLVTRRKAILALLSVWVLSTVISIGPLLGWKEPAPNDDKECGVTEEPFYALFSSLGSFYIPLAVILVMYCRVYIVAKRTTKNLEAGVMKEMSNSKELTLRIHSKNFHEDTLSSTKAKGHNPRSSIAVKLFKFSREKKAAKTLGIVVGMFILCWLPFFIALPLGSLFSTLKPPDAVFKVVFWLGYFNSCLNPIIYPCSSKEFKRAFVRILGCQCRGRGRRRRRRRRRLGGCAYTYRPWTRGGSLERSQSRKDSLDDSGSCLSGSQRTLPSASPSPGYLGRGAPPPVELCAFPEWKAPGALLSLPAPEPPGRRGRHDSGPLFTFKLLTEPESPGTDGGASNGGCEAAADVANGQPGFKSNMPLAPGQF

[2] = target: T2, Alpha-1A adrenergic receptor (Homo sapiens, UniProt P35348); assay: Affinity to Alpha-1 adrenergic receptor determined by radioligand binding techniques from rat-1 fibroblasts membranes
T2 sequence (P35348 whole entry): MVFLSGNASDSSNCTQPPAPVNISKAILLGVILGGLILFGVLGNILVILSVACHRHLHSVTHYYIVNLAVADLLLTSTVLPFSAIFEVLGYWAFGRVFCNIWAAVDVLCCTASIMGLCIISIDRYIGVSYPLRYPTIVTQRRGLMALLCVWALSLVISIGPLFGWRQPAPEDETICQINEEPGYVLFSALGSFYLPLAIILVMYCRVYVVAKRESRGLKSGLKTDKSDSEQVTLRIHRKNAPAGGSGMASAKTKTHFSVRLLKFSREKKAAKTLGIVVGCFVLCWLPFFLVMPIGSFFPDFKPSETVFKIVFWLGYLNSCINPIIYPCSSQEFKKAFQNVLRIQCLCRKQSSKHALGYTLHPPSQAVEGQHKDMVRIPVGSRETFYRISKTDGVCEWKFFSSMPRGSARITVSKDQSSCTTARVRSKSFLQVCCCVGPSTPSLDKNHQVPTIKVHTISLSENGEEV

[3] = target: T3, Alpha-2C adrenergic receptor (Homo sapiens, UniProt P18825); assay: Affinity to human Alpha-2C adrenergic receptor determined by radioligand binding techniques from chinese hamster ovary (CHO) cells; type: cell-based
T3 sequence (P18825 whole entry): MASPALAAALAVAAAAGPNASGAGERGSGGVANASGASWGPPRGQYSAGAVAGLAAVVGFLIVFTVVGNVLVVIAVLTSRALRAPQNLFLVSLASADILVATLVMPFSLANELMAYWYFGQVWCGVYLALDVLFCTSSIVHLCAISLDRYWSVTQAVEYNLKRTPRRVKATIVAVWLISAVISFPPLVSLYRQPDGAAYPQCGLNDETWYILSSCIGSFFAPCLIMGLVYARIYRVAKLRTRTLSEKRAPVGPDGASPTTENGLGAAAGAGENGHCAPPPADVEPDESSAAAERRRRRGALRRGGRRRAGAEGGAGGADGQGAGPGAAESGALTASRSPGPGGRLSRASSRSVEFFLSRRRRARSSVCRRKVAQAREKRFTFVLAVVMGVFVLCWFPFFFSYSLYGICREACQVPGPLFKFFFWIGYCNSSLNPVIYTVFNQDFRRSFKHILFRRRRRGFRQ

[4] = target: T1, Alpha-1B adrenergic receptor; assay: Affinity to human Alpha-1B adrenergic receptor determined by radioligand binding techniques from rat-1 fibroblasts membranes
[5] = target: T4, Alpha-2B adrenergic receptor (Homo sapiens, UniProt P18089); assay: Affinity to human Alpha-2B adrenergic receptor determined by radioligand binding techniques from chinese hamster ovary (CHO) cells; type: cell-based
T4 sequence (P18089 whole entry): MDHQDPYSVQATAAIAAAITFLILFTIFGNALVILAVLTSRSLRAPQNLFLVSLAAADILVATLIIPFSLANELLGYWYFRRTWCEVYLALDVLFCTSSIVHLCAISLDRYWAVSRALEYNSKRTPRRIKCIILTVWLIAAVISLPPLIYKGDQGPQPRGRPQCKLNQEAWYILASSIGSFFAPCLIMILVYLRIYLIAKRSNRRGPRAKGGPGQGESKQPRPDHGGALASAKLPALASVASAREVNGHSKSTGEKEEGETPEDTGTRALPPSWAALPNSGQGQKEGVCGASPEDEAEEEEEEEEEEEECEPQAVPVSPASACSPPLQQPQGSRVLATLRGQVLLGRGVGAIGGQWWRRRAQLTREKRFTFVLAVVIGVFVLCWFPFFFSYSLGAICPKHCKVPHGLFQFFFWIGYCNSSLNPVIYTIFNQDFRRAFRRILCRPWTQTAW

[6] = target: T5, Alpha-2C adrenergic receptor (Homo sapiens) (UniProt P18825); assay: Efficacy as percentage of the maximal effect observed for nonselective agonist UK-14304 in CHO cells expressing human Alpha-2C adrenergic receptor; type: functional, cell-based
T5 sequence (whole entry): T3 sequence (P18825 whole entry)

[7] = target: T6, Alpha-1D adrenergic receptor (Homo sapiens, UniProt P25100); assay: Affinity to human Alpha-1D adrenergic receptor determined by radioligand binding techniques from rat-1 fibroblasts membranes
T6 sequence (P25100 whole entry): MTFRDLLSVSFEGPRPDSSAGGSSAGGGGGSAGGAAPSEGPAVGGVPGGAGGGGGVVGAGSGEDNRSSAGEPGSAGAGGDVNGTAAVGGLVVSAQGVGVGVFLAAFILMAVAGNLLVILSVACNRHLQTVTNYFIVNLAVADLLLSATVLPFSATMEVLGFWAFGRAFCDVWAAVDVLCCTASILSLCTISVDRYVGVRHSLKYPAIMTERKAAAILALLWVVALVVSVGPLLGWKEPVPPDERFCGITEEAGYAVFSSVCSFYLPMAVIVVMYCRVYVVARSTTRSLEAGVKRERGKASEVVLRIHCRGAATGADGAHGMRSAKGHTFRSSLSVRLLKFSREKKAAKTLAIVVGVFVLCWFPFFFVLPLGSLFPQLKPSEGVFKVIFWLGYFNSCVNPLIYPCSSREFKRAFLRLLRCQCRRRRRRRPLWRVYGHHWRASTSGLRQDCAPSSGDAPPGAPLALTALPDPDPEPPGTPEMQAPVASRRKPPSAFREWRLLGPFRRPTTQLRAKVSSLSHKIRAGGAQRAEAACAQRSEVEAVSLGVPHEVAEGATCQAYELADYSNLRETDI

Row | SMILES | EC50 [1] [nM] | Ki [2] [nM] | Ki [3] [nM] | Ki [4] [nM] | Ki [5] [nM] | Max [6] [%] | Ki [7] [nM]
1 | C[S+]([O-])c1ccccc1NCC1=NCCN1 (stereo not drawn) | > 100000 | 1290 | > 5010 | 794 | > 6310 | 74 | 1200
2 | CS(=O)(=O)c1ccc(Cl)cc1NCC1=NCCN1 | 61.7 | 537 | 4790 | 2950 | > 6310 | 81 | 2400
3 | CCS(=O)(=O)c1ccccc1NCC1=NCCN1 | > 100000 | 1200 | 2510 | 912 | > 6310 | 64 | 2240
4 | CSc1ccccc1NCC1=NCCN1 |  | 43.7 | 145 | 66.1 | 776 | 82 | 11.2
5 | CCCS(=O)(=O)c1ccccc1NCC1=NCCN1 |  | 2190 | 2630 | 832 | > 6310 | 56 | 1380
6 | CSc1ccc(F)cc1NCC1=NCCN1 | 1.86 | 33.1 | 115 | 40.7 | 331 | 97 | 6.17
7 | CC(C)S(=O)(=O)c1ccccc1NCC1=NCCN1 | > 10000 | 2690 | > 5010 | 1000 | > 6310 | 50 | 2820
8 | CS(=O)(=O)c1ccc(F)cc1NCC1=NCCN1 | > 100000 | 813 | > 5010 | 1320 | > 6310 | 91 | 2630
9 | CSc1ccc(C)cc1NCC1=NCCN1 | 0.417 | 20.9 | 200 | 123 | 977 | 81 | 17.4
10 | CS(=O)(=O)c1c(F)cccc1NCC1=NCCN1 | > 100000 | 550 | 257 | 2290 | > 6310 | 93 | 3470
11 | CS(=O)(=O)c1cccc(F)c1NCC1=NCCN1 | > 100000 | 417 | 692 | 380 | > 6310 | 93 | 912
12 | CC(C)Sc1ccccc1NCC1=NCCN1 | 61.7 | 57.5 | 166 | 170 | 2340 | 91 | 224
13 | COc1ccc(SC)c(NCC2=NCCN2)c1 | 3.63 | 174 | 603 | 692 | > 6310 | 74 | 107
14 | CSc1ccc(C(F)(F)F)cc1NCC1=NCCN1 | 6.03 | 589 | 603 | 2040 | 1660 | 45 | 479
15 | CSc1c(F)cccc1NCC1=NCCN1 | 85.1 | 148 | 219 | 240 | 3980 | 104 | 302
16 | CS(=O)(=O)c1ccc(C(F)(F)F)cc1NCC1=NCCN1 | > 100000 | > 12600 | > 5010 | > 10000 | > 6310 | 25 | > 15800
17 | CS(=O)(=O)c1cc(Cl)ccc1NCC1=NCCN1 |  | 457 | 3980 | 646 | > 6310 | 54 | 871
18 | CSc1cc(F)ccc1NCC1=NCCN1 | 6.03 | 20.9 | 219 | 15.1 | 851 | 82 | 5.01
19 | CSc1ccc(Cl)cc1NCC1=NCCN1 | 0.501 | 18.6 | 170 | 69.2 | 676 | 92 | 4.68
20 | Cc1ccc(S(C)(=O)=O)c(NCC2=NCCN2)c1 | 141 | 776 | > 5010 | 3470 | > 6310 | 76 | 4790
21 | CS(=O)(=O)c1cc(F)ccc1NCC1=NCCN1 | > 100000 | 661 | > 5010 | 513 | > 6310 | 32 | 1620
22 | CCSc1ccccc1NCC1=NCCN1 | 13.8 | 43.7 | 269 | 75.9 | 1620 | 101 | 57.5
23 | CS(=O)(=O)c1ccccc1NCC1=NCCN1 | > 100000 | 589 | > 5010 | 1290 | > 6310 | 68 | 3800

From ChEMBL document CHEMBL1135421, “2-(Anilinomethyl)imidazolines as alpha1 adrenergic receptor agonists: the discovery of alpha1a subtype selective 2'-alkylsulfonyl-substituted analogues” (J Med Chem, 2002)
